Results taken from ChEMBL document CHEMBL4507268 (2021).

How the values were obtained:
[1] = target: Focal adhesion kinase 1 (Homo sapiens) (UniProt Q05397); conditions: Compound concentration 1000.0 nM
[2] = target: Vascular endothelial growth factor receptor 1 (Homo sapiens) (UniProt P17948); conditions: Compound concentration 1000.0 nM
[3] = target: LIM domain kinase 1 (Homo sapiens) (UniProt P53667); conditions: Compound concentration 1000.0 nM
[4] = target: T1, Serine/threonine-protein kinase TBK1 (Homo sapiens) (UniProt Q9UHD2); conditions: Compound concentration 1000.0 nM
T1 sequence (whole entry): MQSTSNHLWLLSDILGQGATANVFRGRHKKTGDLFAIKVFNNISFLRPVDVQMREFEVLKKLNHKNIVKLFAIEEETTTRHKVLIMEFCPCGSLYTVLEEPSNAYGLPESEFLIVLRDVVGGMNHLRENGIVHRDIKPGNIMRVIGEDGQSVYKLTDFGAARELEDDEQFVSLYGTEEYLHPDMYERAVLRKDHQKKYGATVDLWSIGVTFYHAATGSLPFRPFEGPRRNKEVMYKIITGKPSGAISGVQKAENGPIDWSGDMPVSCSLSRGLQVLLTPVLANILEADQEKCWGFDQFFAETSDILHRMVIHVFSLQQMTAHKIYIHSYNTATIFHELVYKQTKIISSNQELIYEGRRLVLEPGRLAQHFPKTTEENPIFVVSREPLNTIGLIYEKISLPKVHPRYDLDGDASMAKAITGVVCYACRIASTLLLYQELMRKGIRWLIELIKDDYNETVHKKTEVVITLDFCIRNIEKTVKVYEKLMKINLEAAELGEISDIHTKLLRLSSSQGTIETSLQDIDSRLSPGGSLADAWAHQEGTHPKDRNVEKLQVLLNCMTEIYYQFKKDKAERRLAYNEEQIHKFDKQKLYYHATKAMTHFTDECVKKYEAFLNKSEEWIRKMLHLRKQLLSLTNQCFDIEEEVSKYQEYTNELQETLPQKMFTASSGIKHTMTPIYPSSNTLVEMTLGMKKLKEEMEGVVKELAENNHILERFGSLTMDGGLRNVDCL

[5] = target: T2, Rhodopsin kinase GRK7 (Homo sapiens) (UniProt Q8WTQ7); conditions: Compound concentration 1000.0 nM
T2 sequence (whole entry): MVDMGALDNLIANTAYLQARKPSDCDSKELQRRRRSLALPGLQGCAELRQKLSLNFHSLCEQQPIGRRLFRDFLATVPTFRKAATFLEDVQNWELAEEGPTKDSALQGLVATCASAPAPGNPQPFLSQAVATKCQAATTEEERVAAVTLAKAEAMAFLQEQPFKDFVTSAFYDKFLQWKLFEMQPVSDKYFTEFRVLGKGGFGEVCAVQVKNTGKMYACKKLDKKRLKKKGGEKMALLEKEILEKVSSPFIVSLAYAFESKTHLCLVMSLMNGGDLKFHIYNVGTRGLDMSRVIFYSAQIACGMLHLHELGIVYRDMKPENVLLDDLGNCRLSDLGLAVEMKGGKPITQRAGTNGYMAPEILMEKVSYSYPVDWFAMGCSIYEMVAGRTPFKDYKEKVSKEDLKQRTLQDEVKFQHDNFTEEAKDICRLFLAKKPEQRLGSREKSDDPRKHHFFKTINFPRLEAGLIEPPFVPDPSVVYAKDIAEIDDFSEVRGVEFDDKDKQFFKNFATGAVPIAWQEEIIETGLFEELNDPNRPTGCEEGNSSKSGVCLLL

[6] = target: Ribosomal protein S6 kinase alpha-3 (Homo sapiens) (UniProt P51812); conditions: Compound concentration 1000.0 nM
Chain of Ribosomal protein S6 kinase alpha-3 (Homo sapiens) (P51812 whole entry): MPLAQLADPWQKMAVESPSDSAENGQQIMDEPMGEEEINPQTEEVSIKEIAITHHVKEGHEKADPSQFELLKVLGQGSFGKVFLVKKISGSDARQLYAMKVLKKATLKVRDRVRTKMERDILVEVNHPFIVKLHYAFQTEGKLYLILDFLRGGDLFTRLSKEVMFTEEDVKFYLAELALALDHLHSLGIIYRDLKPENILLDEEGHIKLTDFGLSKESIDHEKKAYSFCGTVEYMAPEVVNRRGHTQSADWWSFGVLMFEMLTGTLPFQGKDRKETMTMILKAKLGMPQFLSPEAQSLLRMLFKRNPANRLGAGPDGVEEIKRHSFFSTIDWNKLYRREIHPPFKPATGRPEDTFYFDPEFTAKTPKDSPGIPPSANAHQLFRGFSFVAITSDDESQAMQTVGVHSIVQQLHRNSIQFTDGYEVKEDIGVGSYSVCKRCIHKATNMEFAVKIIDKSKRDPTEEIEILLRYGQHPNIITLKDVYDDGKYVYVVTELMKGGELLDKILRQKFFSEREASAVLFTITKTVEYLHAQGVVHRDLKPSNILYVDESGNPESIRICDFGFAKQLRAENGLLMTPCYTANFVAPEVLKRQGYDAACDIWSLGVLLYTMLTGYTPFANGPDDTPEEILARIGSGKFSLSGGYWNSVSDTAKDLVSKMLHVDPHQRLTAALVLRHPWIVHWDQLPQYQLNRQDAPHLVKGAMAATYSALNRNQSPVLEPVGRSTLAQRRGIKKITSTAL

[7] = target: T3, Mitogen-activated protein kinase 12 (Homo sapiens) (UniProt P53778); conditions: Compound concentration 1000.0 nM
T3 sequence (whole entry): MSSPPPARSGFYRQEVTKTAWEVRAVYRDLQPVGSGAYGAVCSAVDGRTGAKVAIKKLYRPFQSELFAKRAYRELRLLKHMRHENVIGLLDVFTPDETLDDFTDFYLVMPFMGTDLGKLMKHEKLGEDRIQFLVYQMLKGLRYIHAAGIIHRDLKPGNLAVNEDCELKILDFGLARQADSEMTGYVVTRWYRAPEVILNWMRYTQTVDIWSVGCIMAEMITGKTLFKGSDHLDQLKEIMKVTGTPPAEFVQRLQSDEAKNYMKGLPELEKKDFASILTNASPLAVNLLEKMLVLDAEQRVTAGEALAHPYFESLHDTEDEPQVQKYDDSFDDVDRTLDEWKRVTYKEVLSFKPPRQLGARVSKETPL

[8] = tested on: Mast/stem cell growth factor receptor Kit (Homo sapiens), P10721 [A829P]; conditions: Compound concentration 1000.0 nM
Chain of Mast/stem cell growth factor receptor Kit (Homo sapiens), P10721 [A829P] (P10721 whole entry A829P): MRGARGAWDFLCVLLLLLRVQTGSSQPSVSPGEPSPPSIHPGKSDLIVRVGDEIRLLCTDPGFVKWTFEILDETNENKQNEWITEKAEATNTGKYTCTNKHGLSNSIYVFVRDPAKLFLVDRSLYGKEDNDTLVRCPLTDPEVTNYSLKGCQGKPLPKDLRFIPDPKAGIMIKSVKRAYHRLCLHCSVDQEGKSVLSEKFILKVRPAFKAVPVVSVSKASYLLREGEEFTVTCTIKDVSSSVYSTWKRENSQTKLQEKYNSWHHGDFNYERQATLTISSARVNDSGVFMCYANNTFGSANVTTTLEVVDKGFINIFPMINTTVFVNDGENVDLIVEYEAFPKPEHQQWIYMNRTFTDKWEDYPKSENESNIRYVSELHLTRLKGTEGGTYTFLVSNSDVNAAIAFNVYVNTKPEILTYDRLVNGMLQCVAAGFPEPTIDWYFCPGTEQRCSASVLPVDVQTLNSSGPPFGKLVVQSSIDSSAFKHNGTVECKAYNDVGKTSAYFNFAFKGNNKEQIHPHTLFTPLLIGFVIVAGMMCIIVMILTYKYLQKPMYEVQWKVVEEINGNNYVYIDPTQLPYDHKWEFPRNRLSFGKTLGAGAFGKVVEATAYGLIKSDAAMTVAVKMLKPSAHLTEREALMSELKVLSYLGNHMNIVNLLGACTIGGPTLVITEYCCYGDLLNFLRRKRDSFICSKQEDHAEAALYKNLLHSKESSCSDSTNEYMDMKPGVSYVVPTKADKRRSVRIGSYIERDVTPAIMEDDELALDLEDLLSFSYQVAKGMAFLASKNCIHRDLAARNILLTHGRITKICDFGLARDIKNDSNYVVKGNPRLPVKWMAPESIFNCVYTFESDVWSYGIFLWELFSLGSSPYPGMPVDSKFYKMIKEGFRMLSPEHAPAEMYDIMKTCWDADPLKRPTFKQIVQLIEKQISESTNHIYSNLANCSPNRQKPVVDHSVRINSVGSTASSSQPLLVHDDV

[9] = target: T4, Mitogen-activated protein kinase 13 (Homo sapiens) (UniProt O15264); conditions: Compound concentration 1000.0 nM
T4 sequence (whole entry): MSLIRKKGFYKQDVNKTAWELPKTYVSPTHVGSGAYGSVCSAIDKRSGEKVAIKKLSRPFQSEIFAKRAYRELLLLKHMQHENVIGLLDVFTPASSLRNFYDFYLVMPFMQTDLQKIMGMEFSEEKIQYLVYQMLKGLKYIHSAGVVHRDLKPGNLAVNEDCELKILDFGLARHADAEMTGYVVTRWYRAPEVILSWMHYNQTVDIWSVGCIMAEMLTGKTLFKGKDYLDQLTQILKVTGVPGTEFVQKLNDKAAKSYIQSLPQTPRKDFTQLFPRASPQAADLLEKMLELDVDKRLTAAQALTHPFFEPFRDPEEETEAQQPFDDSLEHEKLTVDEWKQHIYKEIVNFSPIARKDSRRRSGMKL

SNU-449 = test: Proliferation assay: SNU-449 (hepatocellular carcinoma); assay type: functional, cell-based; conditions: Homo sapiens

Chain of Vascular endothelial growth factor receptor 1 (Homo sapiens) (P17948 whole entry, the tested form may be a part): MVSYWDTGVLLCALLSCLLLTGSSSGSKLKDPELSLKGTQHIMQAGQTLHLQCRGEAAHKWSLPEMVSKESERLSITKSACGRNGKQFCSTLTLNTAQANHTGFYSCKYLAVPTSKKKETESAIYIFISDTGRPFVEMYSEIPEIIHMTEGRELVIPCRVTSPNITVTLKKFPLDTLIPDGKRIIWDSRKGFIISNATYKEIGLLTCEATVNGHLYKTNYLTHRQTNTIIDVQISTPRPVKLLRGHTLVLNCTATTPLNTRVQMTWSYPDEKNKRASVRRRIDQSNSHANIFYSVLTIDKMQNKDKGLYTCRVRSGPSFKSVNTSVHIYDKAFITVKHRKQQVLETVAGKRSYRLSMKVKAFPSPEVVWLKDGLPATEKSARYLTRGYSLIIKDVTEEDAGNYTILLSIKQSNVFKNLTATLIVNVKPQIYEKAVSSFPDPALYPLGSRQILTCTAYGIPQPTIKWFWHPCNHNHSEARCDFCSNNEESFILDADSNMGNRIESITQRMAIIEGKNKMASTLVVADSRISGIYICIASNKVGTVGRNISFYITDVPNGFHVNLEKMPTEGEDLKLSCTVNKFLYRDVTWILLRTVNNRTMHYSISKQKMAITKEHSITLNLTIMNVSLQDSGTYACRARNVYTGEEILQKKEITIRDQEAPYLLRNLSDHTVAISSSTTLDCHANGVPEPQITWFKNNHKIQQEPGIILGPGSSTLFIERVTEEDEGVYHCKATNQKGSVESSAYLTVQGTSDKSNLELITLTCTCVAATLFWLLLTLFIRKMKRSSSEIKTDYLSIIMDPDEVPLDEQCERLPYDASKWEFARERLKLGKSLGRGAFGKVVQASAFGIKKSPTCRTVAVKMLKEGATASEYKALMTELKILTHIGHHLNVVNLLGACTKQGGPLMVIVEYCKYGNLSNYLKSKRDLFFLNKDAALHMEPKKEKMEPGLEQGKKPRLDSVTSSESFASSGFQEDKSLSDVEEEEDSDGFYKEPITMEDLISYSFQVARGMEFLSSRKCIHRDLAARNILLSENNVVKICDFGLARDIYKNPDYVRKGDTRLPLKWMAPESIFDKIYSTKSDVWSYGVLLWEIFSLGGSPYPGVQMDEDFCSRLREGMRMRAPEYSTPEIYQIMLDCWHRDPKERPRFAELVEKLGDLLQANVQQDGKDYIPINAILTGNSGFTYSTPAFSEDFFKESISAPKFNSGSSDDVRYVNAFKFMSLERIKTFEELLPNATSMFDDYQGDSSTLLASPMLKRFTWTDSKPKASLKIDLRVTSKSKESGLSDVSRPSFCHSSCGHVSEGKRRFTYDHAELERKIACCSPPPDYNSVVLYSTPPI
Chain of LIM domain kinase 1 (Homo sapiens) (P53667 whole entry, looked up, the tested form may be a part): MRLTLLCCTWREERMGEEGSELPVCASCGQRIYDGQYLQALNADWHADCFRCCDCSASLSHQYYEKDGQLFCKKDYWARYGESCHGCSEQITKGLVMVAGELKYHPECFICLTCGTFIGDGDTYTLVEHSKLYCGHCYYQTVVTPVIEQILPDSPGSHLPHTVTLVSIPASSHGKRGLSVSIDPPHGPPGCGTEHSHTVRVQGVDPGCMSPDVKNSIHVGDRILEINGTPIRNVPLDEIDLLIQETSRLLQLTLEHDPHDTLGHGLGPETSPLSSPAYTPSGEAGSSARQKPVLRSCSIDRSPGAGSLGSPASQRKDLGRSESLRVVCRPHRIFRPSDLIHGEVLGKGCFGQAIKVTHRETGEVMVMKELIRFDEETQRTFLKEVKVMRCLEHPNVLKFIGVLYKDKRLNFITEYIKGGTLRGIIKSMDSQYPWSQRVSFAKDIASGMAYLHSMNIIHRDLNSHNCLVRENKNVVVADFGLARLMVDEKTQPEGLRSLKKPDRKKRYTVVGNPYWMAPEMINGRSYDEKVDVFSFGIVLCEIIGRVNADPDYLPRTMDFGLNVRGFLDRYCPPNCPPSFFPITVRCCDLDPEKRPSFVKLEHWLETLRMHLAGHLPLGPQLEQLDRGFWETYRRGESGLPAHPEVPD
Chain of Focal adhesion kinase 1 (Homo sapiens) (Q05397 2-1052 limits assumed): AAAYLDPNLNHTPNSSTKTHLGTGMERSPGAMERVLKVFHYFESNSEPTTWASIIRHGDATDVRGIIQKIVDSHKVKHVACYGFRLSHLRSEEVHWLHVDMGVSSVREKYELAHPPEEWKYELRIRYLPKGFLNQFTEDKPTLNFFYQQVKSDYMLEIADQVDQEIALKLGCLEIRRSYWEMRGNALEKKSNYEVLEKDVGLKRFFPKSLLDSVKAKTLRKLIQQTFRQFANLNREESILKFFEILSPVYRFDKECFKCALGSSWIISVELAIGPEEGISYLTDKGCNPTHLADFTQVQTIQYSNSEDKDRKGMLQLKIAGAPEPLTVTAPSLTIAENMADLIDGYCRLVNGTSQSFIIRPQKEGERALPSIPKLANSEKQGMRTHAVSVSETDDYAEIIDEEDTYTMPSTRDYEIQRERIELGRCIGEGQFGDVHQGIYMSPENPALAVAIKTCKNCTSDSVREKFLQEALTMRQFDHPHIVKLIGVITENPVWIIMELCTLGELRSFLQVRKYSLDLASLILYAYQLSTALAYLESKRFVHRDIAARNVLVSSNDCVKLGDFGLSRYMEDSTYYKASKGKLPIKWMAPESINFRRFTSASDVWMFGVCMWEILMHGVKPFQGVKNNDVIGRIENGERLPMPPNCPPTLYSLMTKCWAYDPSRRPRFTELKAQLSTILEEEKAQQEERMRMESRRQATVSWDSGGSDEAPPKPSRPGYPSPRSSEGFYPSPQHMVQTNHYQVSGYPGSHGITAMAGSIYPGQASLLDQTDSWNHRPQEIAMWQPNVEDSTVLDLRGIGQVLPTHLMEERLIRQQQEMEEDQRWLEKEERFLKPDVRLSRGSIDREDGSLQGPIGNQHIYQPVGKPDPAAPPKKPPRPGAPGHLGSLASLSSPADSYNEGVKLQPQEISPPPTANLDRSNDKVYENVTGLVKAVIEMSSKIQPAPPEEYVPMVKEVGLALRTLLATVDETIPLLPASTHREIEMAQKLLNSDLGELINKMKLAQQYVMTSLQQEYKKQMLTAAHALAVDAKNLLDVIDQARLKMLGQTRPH

SMILES | residual activity [1] [%] | residual activity [2] [%] | residual activity [3] [%] | residual activity [4] [%] | residual activity [5] [%] | residual activity [6] [%] | residual activity [7] [%] | residual activity [8] [%] | residual activity [9] [%] | IC50 (SNU-449)
Cc1nc(C2CCN(C(=O)c3ccc(OC(F)(F)F)cc3N)CC2)c2ncc(N3CCN(C)CC3)cc2n1 [BAY-693] | 91 | 88 | 93 | 100 | 81 | 82 | 100 | 86 | 100 | 19.5 µM (not active)
CN1CCN(c2cnc3c(C4CCN(C(=O)c5ccc(OC(F)(F)F)cc5N)CC4)ncnc3c2)CC1 [BAY-885] | 100 | 76 | 100 | 61 | 87 | 80 | 83 | 100 | 100 | > 30 µM (not active)
